The values that follow come from US20090285917A1, “COMPOSITION COMPRISING COMPLEX CRUDE DRUG EXTRACTS SHOWING ANTI-ALLERGIC RHINITIS, ANTI-ATOPIC DERMATITIS AND ANTI-ASTHMA ACTIVITY” (priority 2006, published 2009).

This assay concerns Passive Cutaneous Anaphylaxis in male mouse. The experiment in a line: Passive cutaneous anaphylaxis (PCA), evans blue in ears. The assay is classed as in vivo. The method, then: Anti-DNP (anti-Dinitrophenyl) of 1.2 ug/mL, […], Sigma was injected by 10 ul into both ears of a male mouse, and 47 hours after antibody Dinitrophenyl injection, the sample is oral-administrated. One hour later (48 hours after antibody-Dinitrophenyl injection), 1.25 mg of DNP-albumin, […], Sigma and a biological salt solution dissolved with 1.25 mg of evans blue, […], Sigma was injected into a tail vein for thereby causing a certain reaction. Neck back bone was broken, and the mouse was dead, and the evans blue color component was measured from both ears. As control groups, promethazine hydrochloride, […], Sigma was used.

Structures are written as SMILES. Counter-ions that a name gives are not always drawn.

As to `CC(CN1c2ccccc2Sc2ccccc21)N(C)C` (stereo not drawn) [Promethazine hydrochloride, promethazine hydrochloride], the “Amount of Color” value (administration amount 2, oral) is reported as 7.8 ± 0.5 ug/a pair of ears; the “Amount of Color” value (administration amount 5, oral) is recorded as 5.4 ± 1.1 ug/a pair of ears; the “Amount of Color” value (administration amount 10, oral) is 1.7 ± 1.0 ug/a pair of ears.
